Consider one compound from patent publication US20100113430A1, “THIOXANTHENE DERIVATES USEFUL TO TREAT INFECTIOUS DISEASES” (BKG PHARMA APS, priority 2007, published 2010).

One experiment relates to HIV-1 strain HTLV-IIIB. The experiment is described as follows: Inhibition of HIV-1 replication in MT4 cells (MTT assay). Type of experiment: cell-based. The following applies: HIV-1 IIIB 0.005 MOI, six days. As to the method: The antiviral effect of N-dealkyl-trans-flupenthixol and N-dealkyl-trans-clopenthixol was studied by checkerboard studies exposing HIV infected cells to 0-3 μM of trans-clopenthixol. Each experiment was repeated in triple duplicate. MIC values represent the mean values of two separate experiments.
The HIV-1 strain HTLV-IIIB were propagated in H9 cells at 37° C., 5% CO2 using RPMI 1640 with 10% heat-inactivated foetal calf serum (FCS) and antibiotics (growth medium). Culture supernatant was filtered ([…]), aliquoted, and stored at −80° C. until use. The HIV-1 strain was obtained from NIH AIDS Research and Reference Program.
Compounds were examined for possible antiviral activity against strain IIIB of HIV-1 using MT4 cells as target cells. MT4 cells were incubated with virus (0.005 MOI) and growth medium containing the test dilutions of compound(s) for six days in parallel with virus-infected and uninfected control cultures without compound added. Expression of HIV in the cultures was indirectly quantified using the MTT assay as previously described. Compounds mediating less than 30% reduction of HIV expression were considered without biological activity. […] The 50% inhibitory concentration was determined by interpolation from the plots of percent inhibition versus concentration of compound. […]

For experiment [1], the system named is Candida glabrata Multiresistant isolate. The experiment is described as follows: MIC of cis- and trans-forms, Candida glabrata multiresistant isolate. Type of experiment: cell-based. The following applies: Example 4. The protocol:
(§1) Cell growth was tested using the Minimal Inhibitory Concentration (MIC) susceptibility tests by use of the microdilution broth method in accordance to the NCCLS Guidelines (NCCLS Guidelines, Methods for Dilution Antimicrobial Susceptibility Tests for Bacteria That Grow Aerobically; Approved Standard, Sixth Edition, Volume 23; Number 2). The minimum inhibitory concentration (MIC), is defined ad the lowest concentration of drug which inhibits growth of the test organism, in the sense that no visible growth is detected (total inhibition of growth). In example 2 MIC of the compounds used on fungal microorganisms was determined from the IC90 measurements according to NCCLS Guidelines.
Cultured microorganisms were assayed as described above. Cis- and trans-isomers of N-dealkyl-clopenthixol was added to the cultures.

The test system of experiment [2] is Enterococcus faecium resistant clinical isolates. The experiment is described as follows: MIC/IC90, resistant clinical isolates of Enterococcus faecium. Type of experiment: cell-based. As to the method:
as §1
A log phase culture of bacteria was diluted with fresh pre-warmed Mueller-Hinton medium and adjusted to a defined OD at 600 nm in order to give a final concentration of 1×10^4-5 bacteria/ml medium. The bacterial culture was transferred to microtiter-plates and culture was added to each well. Drug was added to the bacterial culture in the wells as two-fold dilution series of drug in order to give final concentrations ranging from 0.03 to 128 μg/ml. Trays were incubated at 37° C. by shaking in a robot analyzer, PowerWavex, software KC^4′ Kebo.Lab, Copenhagen, for 16 h and optical densities were measured at 600 nm during the incubation time in order to record growth curves. Wells containing bacterial culture without drug were used as controls to ensure correct inoculum size and bacterial growth during the incubation. Cultures were tested in order to detect contaminations. Each experiment was repeated in triplicate. MIC values represent the mean values of two separate triplicate experiments. Intra- and interassay variation was <5%.
Inhibition 90 (IC90) is defined as: OD responding a 90% growth inhibition. […]
Clinically relevant isolates were cultured and assayed as described above.

The subject of experiment [3] is Enterococcus faecalis BG VSE-92. The experiment is described as follows: Mouse peritonitis/sepsis model. The following applies: 25 mg/kg s.c. It is filed as in vivo, NMRI mice. As to the method: A clinical multiresistant isolate of Enterococcus faecalis BG VSE-92 from human urine was used.
Female NMRI mice (age, approximately 6 to 8 weeks; weight, 30±2 g) were used for the mouse […] peritonitis model (as described below).
Bacterial suspensions were prepared from fresh overnight cultures (made from frozen stock cultures) on 5% blood agar plates as described above. The inoculum for the mouse peritonitis model was prepared immediately before use and was adjusted at 540 nm of giving a density of approximately 10^7 CFU/ml. The size of the inoculum was determined by viability counting on 5% blood agar.
The mice were injected intraperitoneally with 0.5 ml of the enterococcal suspension, resulting in bacteremia within 1 h of inoculation. Antibiotic therapy was initiated 1 h after inoculation. N-dealkyl-trans-clopenthixol was administered subcutaneously in the neck region in a volume of 0.7 ml per dose. Ten mice were in each treatment group. Inoculated untreated control mice were included in all trials. (Method reference: Erlandsdottir et al; Antimicrob Agents Chemother. 2001 April; 45(4):1078-85)
The effects of the various treatment regimens were determined during 6 h of treatment by evaluation of bacterial counts in the […]. After the mice were killed, blood were immediately diluted 10-fold in saline, from which 20 μl was plated onto 5% blood agar plates in spots, with subsequent counting of colonies after incubation overnight at 35° C. The lowest detection levels for bacterial counts in blood were 50 CFU/ml.
The bactericidal efficacies of the treatment regimens in the mouse models were calculated by subtracting the results for each treated mouse from the mean results for control mice at the end of therapy (6 h). A P value of <0.05 was considered significant. All statistical comparisons were two-tailed.

[4] abbreviates: Enterococcus faecium 16, BLR, CR.
Setting [5] is: 6 hours after inoculation, infected mice.

As a reminder, the pEC50 is the negative decadic logarithm of the EC50, by convention in mol/L. As usually defined, the MIC is the lowest concentration found to suppress growth. One may read the IC90 as the concentration at which the effect reaches the 90% level. A high value points to weaker potency.

The structures appear in SMILES notation. pEC50: −log10 of the molar value. Converted amounts (≈) assume the structure as drawn.

For the compound `Clc1ccc2c(c1)/C(=C/CCN1CCNCC1)c1ccccc1S2` [N-dealkyl-trans-clopenthixol, trans-1-(3-(2-chloro-thioxanthen-9-ylidene)propyl)piperazine], the negative logarithm of the EC50 (pEC50) in the experiment on HIV-1 strain HTLV-IIIB was 5.70. The minimum inhibitory concentration (MIC) in experiment [1] worked out at 1.0 µg/mL; in experiment [2] (Enterococcus faecium 11, VanA), 1 µg/mL (≈ 2.8 µM); in experiment [2] (Enterococcus faecium 12, VanA), 1 µg/mL (≈ 2.8 µM); in experiment [2] (Enterococcus faecium 13, VanB) it was 1 µg/mL (≈ 2.8 µM); in experiment [2] (Enterococcus faecium 14, HLAR), 1 µg/mL (≈ 2.8 µM); in experiment [2] (Enterococcus faecium 15, HLAR) it was 1 µg/mL (≈ 2.8 µM). In addition, the minimum inhibitory concentration (MIC) in experiment [2] (setting [4]) came out at 1 µg/mL (≈ 2.8 µM); in experiment [2] (Enterococcus faecium 17, VanB), 1 µg/mL (≈ 2.8 µM); in experiment [2] (Enterococcus faecium 18, VanB), 1 µg/mL (≈ 2.8 µM); in experiment [2] (Enterococcus faecium 19, VanB), 1 µg/mL (≈ 2.8 µM); in experiment [2] (Enterococcus faecium multiresistant isolate, Example 4) it was 0.5 µg/mL (≈ 1.4 µM). Also, the IC90 came to 0.6 µg/mL (≈ 1.68 µM) in experiment [2] (Enterococcus faecium 11, VanA); 0.6 µg/mL (≈ 1.68 µM) in experiment [2] (Enterococcus faecium 12, VanA); 0.5 µg/mL (≈ 1.4 µM) in experiment [2] (Enterococcus faecium 13, VanB); 0.5 µg/mL (≈ 1.4 µM) in experiment [2] (Enterococcus faecium 14, HLAR); 0.5 µg/mL (≈ 1.4 µM) in experiment [2] (Enterococcus faecium 15, HLAR); 0.6 µg/mL (≈ 1.68 µM) in experiment [2] (setting [4]). Moreover, the IC90 was 0.5 µg/mL (≈ 1.4 µM) in experiment [2] (Enterococcus faecium 17, VanB); 0.6 µg/mL (≈ 1.68 µM) in experiment [2] (Enterococcus faecium 18, VanB); 0.6 µg/mL (≈ 1.68 µM) in experiment [2] (Enterococcus faecium 19, VanB). Also, the “Cfu/ml blood (median)” value in experiment [3] (setting [5]) is recorded as 1.55 × 10^4 Cfu/ml blood. Moreover, the “Log (cfu/ml blood) (median)” value in experiment [3] (setting [5]) is 4.19 Log (cfu/ml blood). The “decrease of number of bacteria per ml of blood” value in experiment [3] (p<0.05) is reported as “approx. 2 log”.
